Assay results from ChEMBL document CHEMBL5344406, “1,2,3-Triazole-containing hybrids with potential antibacterial activity against ESKAPE pathogens” (2022).
In brackets after ≈: the same amount, converted by molar mass.

What was measured:
Assay type in all cases: functional
Escherichia coli [1] = experiment: Antibacterial activity against Escherichia coli assessed as bacterial growth inhibition by serial dilution method
Pseudomonas aeruginosa [2] = experiment: Antibacterial activity against Pseudomonas aeruginosa assessed as bacterial growth inhibition by serial dilution method
Bacillus subtilis = experiment: Antibacterial activity against Bacillus subtilis assessed as bacterial growth inhibition by serial dilution method
Staphylococcus aureus [3] = experiment: Antibacterial activity against Staphylococcus aureus assessed as bacterial growth inhibition by serial dilution method
[4] = tested on: Staphylococcus epidermidis; experiment: Antibacterial activity against Staphylococcus epidermidis assessed as bacterial growth inhibition by serial dilution method
Staphylococcus aureus [5] = experiment: Antibacterial activity against Staphylococcus aureus ATCC 25923 assessed as bacterial growth inhibition incubated for 18 to 20 hrs by broth microdilution method; conditions: time 18-20 hrs
Escherichia coli [6] = experiment: Antibacterial activity against Escherichia coli ATCC 25922 assessed as bacterial growth inhibition incubated for 18 to 20 hrs by broth microdilution method; conditions: time 18-20 hrs
Klebsiella pneumoniae = experiment: Antibacterial activity against Klebsiella pneumoniae ATCC 29665 assessed as bacterial growth inhibition incubated for 18 to 20 hrs by broth microdilution method; conditions: time 18-20 hrs
Acinetobacter baumannii = experiment: Antibacterial activity against Acinetobacter baumannii ATCC 19606 assessed as bacterial growth inhibition incubated for 18 to 20 hrs by broth microdilution method; conditions: time 18-20 hrs
Pseudomonas aeruginosa [7] = experiment: Antibacterial activity against Pseudomonas aeruginosa ATCC 27853 assessed as bacterial growth inhibition incubated for 18 to 20 hrs by broth microdilution method; conditions: time 18-20 hrs
Escherichia coli [8] = experiment: Antibacterial activity against Escherichia coli assessed as bacterial growth inhibition
Pseudomonas aeruginosa [9] = experiment: Antibacterial activity against Pseudomonas aeruginosa assessed as bacterial growth inhibition
Staphylococcus aureus [10] = experiment: Antibacterial activity against Staphylococcus aureus ATCC 43300 assessed as bacterial growth inhibition incubated for 24 hrs by broth microdilution method
Staphylococcus aureus [11] = experiment: Antibacterial activity against Staphylococcus aureus ATCC 29213 assessed as bacterial growth inhibition incubated for 24 hrs by broth microdilution method
Staphylococcus aureus [12] = experiment: Antibacterial activity against Staphylococcus aureus clinical isolate AD3 assessed as bacterial growth inhibition incubated for 24 hrs by broth microdilution method
Staphylococcus aureus [13] = experiment: Antibacterial activity against Staphylococcus aureus clinical isolate 144 assessed as bacterial growth inhibition incubated for 24 hrs by broth microdilution method
Staphylococcus aureus [14] = experiment: Antibacterial activity against methicillin-resistant Staphylococcus aureus clinical isolate 1 assessed as bacterial growth inhibition incubated for 8 hrs by CLSI based broth microdilution method
Staphylococcus aureus [15] = experiment: Antibacterial activity against methicillin-resistant Staphylococcus aureus clinical isolate 2 assessed as bacterial growth inhibition incubated for 8 hrs by CLSI based broth microdilution method

`NC(=S)N/N=C/c1ccc(OCc2cn(Cc3ccc(Br)cc3)nn2)cc1` gave an MIC (Escherichia coli [1]) of 6.25 µg/mL (≈ 14 µM), an MIC (Pseudomonas aeruginosa [2]) of 6.25 µg/mL (≈ 14 µM) and an MIC (Bacillus subtilis) of 6.25 µg/mL (≈ 14 µM). It also gave an MIC (Staphylococcus aureus [3]) of 6.25 µg/mL (≈ 14 µM) and an MIC [4] of 6.25 µg/mL (≈ 14 µM).
For `O=C(O)c1cn(C2CC2)c2cc(N3CCN(Cc4cn(CC(=O)N5CCC[C@H]5C(=O)O)nn4)CC3)c(F)cc2c1=O`, the MIC (Staphylococcus aureus [5]) was 0.25 µg/mL (≈ 0.44 µM), the MIC (Escherichia coli [6]) was 0.25 µg/mL (≈ 0.44 µM) and the MIC (Klebsiella pneumoniae) was 0.25 µg/mL (≈ 0.44 µM). The MIC (Acinetobacter baumannii) was 0.25 µg/mL (≈ 0.44 µM) and the MIC (Pseudomonas aeruginosa [7]) was 0.25 µg/mL (≈ 0.44 µM).
`NC(=O)N/N=C/c1ccccc1OCc1cn(-c2ccc(F)cc2)nn1` showed an MIC (Escherichia coli [1]) of 25 µg/mL (≈ 70.6 µM), an MIC (Pseudomonas aeruginosa [2]) of 25 µg/mL (≈ 70.6 µM) and an MIC (Bacillus subtilis) of 25 µg/mL (≈ 70.6 µM). The MIC (Staphylococcus aureus [3]) was 25 µg/mL (≈ 70.6 µM) and the MIC [4] was 25 µg/mL (≈ 70.6 µM).
In the case of `NC(=O)N/N=C/c1ccccc1OCc1cn(-c2ccc(Cl)cc2)nn1`, the MIC (Escherichia coli [1]) was 25 µg/mL (≈ 67.4 µM), the MIC (Pseudomonas aeruginosa [2]) was 25 µg/mL (≈ 67.4 µM) and the MIC (Bacillus subtilis) was 25 µg/mL (≈ 67.4 µM). The MIC (Staphylococcus aureus [3]) was 25 µg/mL (≈ 67.4 µM) and the MIC [4] was 25 µg/mL (≈ 67.4 µM).
For `O=C(/C=C/c1ccc(OCc2cn(Cc3ccc(Br)cc3)nn2)cc1)c1ccc(Br)cc1`, the MIC (Escherichia coli [8]) was 6.25 µg/mL (≈ 11.3 µM) and the MIC (Pseudomonas aeruginosa [9]) was 6.25 µg/mL (≈ 11.3 µM).
Compound `C=CCOc1ccc(C[C@H](NC(=O)Cn2cc(CN3CCN(c4cc5c(cc4F)c(=O)c(C(=O)O)cn5C4CC4)CC3)nn2)C(=O)O)cc1` has an MIC (Staphylococcus aureus [5]) of 0.25 µg/mL (≈ 0.371 µM), an MIC (Escherichia coli [6]) of 0.25 µg/mL (≈ 0.371 µM) and an MIC (Klebsiella pneumoniae) of 0.25 µg/mL (≈ 0.371 µM). The MIC (Acinetobacter baumannii) was 0.25 µg/mL (≈ 0.371 µM) and the MIC (Pseudomonas aeruginosa [7]) was 0.25 µg/mL (≈ 0.371 µM).
In the case of `C=C[C@]1(C)C[C@@H](OC(=O)Cn2cc(CN3CCN(c4ccccc4C)CC3)nn2)[C@@]2(C)[C@@H]3C(=O)CC[C@@]3(CC[C@@H]2C)[C@@H](C)[C@@H]1O`, the MIC (Staphylococcus aureus [10]) was 0.5 µg/mL (≈ 0.809 µM), the MIC (Staphylococcus aureus [11]) was 0.5 µg/mL (≈ 0.809 µM) and the MIC (Staphylococcus aureus [12]) was 0.5 µg/mL (≈ 0.809 µM). For the same compound, the MIC (Staphylococcus aureus [13]) was 0.5 µg/mL (≈ 0.809 µM).
`O=C(Cn1cc(CN2CCN(c3cc4c(cc3F)c(=O)c(C(=O)O)cn4C3CC3)CC2)nn1)N[C@@H](CSc1ccccc1)C(=O)O` showed an MIC (Staphylococcus aureus [5]) of 0.25 µg/mL (≈ 0.385 µM), an MIC (Escherichia coli [6]) of 0.25 µg/mL (≈ 0.385 µM) and an MIC (Klebsiella pneumoniae) of 0.25 µg/mL (≈ 0.385 µM). It also gave an MIC (Acinetobacter baumannii) of 0.25 µg/mL (≈ 0.385 µM) and an MIC (Pseudomonas aeruginosa [7]) of 0.25 µg/mL (≈ 0.385 µM).
Compound `CC(C)C[C@H](C(=O)N[C@@H]1Cc2ccc(c(Cl)c2)Oc2cc3cc(c2O[C@@H]2O[C@H](CO)[C@@H](O)[C@H](O)[C@H]2O[C@H]2C[C@](C)(NCCCCCCCc4ccccc4)[C@H](O)[C@H](C)O2)Oc2ccc(cc2Cl)[C@@H](O)[C@@H]2NC(=O)[C@H](NC(=O)[C@@H]3NC(=O)[C@H](CC(=O)O)NC1=O)c1ccc(O)c(c1)-c1c(O)cc(O)cc1[C@H](C(=O)O)NC2=O)n1cc(COCCCCCCOCc2cn([C@H](CC(C)C)C(=O)N[C@@H]3Cc4ccc(c(Cl)c4)Oc4cc5cc(c4O[C@@H]4O[C@H](CO)[C@@H](O)[C@H](O)[C@H]4O[C@H]4C[C@](C)(NCCCCCCCc6ccccc6)[C@H](O)[C@H](C)O4)Oc4ccc(cc4Cl)[C@@H](O)[C@@H]4NC(=O)[C@H](NC(=O)[C@@H]5NC(=O)[C@H](CC(=O)O)NC3=O)c3ccc(O)c(c3)-c3c(O)cc(O)cc3[C@H](C(=O)O)NC4=O)nn2)nn1` has an MIC (Staphylococcus aureus [14]) of 6.25 µg/mL (≈ 1.82 µM) and an MIC (Staphylococcus aureus [15]) of 6.25 µg/mL (≈ 1.82 µM).
Compound `O=C(Cn1cc(CN2CCN(c3cc4c(cc3F)c(=O)c(C(=O)O)cn4C3CC3)CC2)nn1)N[C@@H](Cc1ccccc1C(F)(F)F)C(=O)O` has an MIC (Staphylococcus aureus [5]) of 0.25 µg/mL (≈ 0.365 µM), an MIC (Escherichia coli [6]) of 0.25 µg/mL (≈ 0.365 µM) and an MIC (Klebsiella pneumoniae) of 0.25 µg/mL (≈ 0.365 µM). For the same compound, the MIC (Acinetobacter baumannii) was 0.25 µg/mL (≈ 0.365 µM) and the MIC (Pseudomonas aeruginosa [7]) was 0.25 µg/mL (≈ 0.365 µM).
In the case of `COc1ccc(Cn2cc(COc3ccc(/C=C/C(=O)c4c(O)cc(C)oc4=O)cc3)nn2)cc1`, the MIC (Escherichia coli [8]) was 1.56 µg/mL (≈ 3.29 µM) and the MIC (Pseudomonas aeruginosa [9]) was 1.56 µg/mL (≈ 3.29 µM).
`O=C(Nc1ccc(F)cc1)OCc1cn(Cc2ccc(Br)cc2)nn1` showed an MIC (Escherichia coli [1]) of 3.12 µg/mL (≈ 7.7 µM), an MIC (Pseudomonas aeruginosa [2]) of 3.12 µg/mL (≈ 7.7 µM) and an MIC (Bacillus subtilis) of 3.12 µg/mL (≈ 7.7 µM). It also gave an MIC [4] of 3.12 µg/mL (≈ 7.7 µM).
In the case of `CC(C)C[C@H](C(=O)N[C@@H]1Cc2ccc(c(Cl)c2)Oc2cc3cc(c2O[C@@H]2O[C@H](CO)[C@@H](O)[C@H](O)[C@H]2O[C@H]2C[C@](C)(NCCCCCCCc4ccccc4)[C@H](O)[C@H](C)O2)Oc2ccc(cc2Cl)[C@@H](O)[C@@H]2NC(=O)[C@H](NC(=O)[C@@H]3NC(=O)[C@H](CC(=O)O)NC1=O)c1ccc(O)c(c1)-c1c(O)cc(O)cc1[C@H](C(=O)O)NC2=O)n1cc(COCCOCCOCc2cn([C@H](CC(C)C)C(=O)N[C@@H]3Cc4ccc(c(Cl)c4)Oc4cc5cc(c4O[C@@H]4O[C@H](CO)[C@@H](O)[C@H](O)[C@H]4O[C@H]4C[C@](C)(NCCCCCCCc6ccccc6)[C@H](O)[C@H](C)O4)Oc4ccc(cc4Cl)[C@@H](O)[C@@H]4NC(=O)[C@H](NC(=O)[C@@H]5NC(=O)[C@H](CC(=O)O)NC3=O)c3ccc(O)c(c3)-c3c(O)cc(O)cc3[C@H](C(=O)O)NC4=O)nn2)nn1`, the MIC (Staphylococcus aureus [14]) was 6.25 µg/mL (≈ 1.83 µM) and the MIC (Staphylococcus aureus [15]) was 6.25 µg/mL (≈ 1.83 µM).
`O=C(Cn1cc(CN2CCN(c3cc4c(cc3F)c(=O)c(C(=O)O)cn4C3CC3)CC2)nn1)N[C@@H](Cc1ccccc1)C(=O)O` gave an MIC (Staphylococcus aureus [5]) of 0.25 µg/mL (≈ 0.405 µM), an MIC (Escherichia coli [6]) of 0.25 µg/mL (≈ 0.405 µM) and an MIC (Klebsiella pneumoniae) of 0.25 µg/mL (≈ 0.405 µM). The MIC (Acinetobacter baumannii) was 0.25 µg/mL (≈ 0.405 µM) and the MIC (Pseudomonas aeruginosa [7]) was 0.25 µg/mL (≈ 0.405 µM).
`COc1ccc(C[C@H](NC(=O)Cn2cc(CN3CCN(c4cc5c(cc4F)c(=O)c(C(=O)O)cn5C4CC4)CC3)nn2)C(=O)O)cc1OC` showed an MIC (Staphylococcus aureus [5]) of 0.25 µg/mL (≈ 0.369 µM), an MIC (Escherichia coli [6]) of 0.25 µg/mL (≈ 0.369 µM) and an MIC (Klebsiella pneumoniae) of 0.25 µg/mL (≈ 0.369 µM). It also gave an MIC (Acinetobacter baumannii) of 0.25 µg/mL (≈ 0.369 µM) and an MIC (Pseudomonas aeruginosa [7]) of 0.25 µg/mL (≈ 0.369 µM).
